Measurements published in patent US11472811B2, “Pyrazolotriazolopyrimidine derivatives as A2A receptor antagonist” (BEIGENE, LTD., priority 2018, dated 2022).

Biological target: human A2A receptor (A2AR) (Homo sapiens (Human), UniProt P29274)
Assay: Luciferase reporter assay (HEK293-A2AR-luc2p/CRE/Hygro cells)
Format: cell-based
Settings: 3 nM CGS21680, 5 h incubation
In short: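 Antagonism was scored as inhibition of CRE-luciferase signal driven by 3 nM CGS21680 (=100%) during a 5 h treatment with compound at 0.1–10000 nM. The line was HEK293 stably carrying human A2AR and luc2P/CRE, preincubated 18 h in 1% FBS containing 1 U/mL ADA. IC50 came from the dose-response curve.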

human A2A receptor (A2AR), sequence (P29274 whole entry): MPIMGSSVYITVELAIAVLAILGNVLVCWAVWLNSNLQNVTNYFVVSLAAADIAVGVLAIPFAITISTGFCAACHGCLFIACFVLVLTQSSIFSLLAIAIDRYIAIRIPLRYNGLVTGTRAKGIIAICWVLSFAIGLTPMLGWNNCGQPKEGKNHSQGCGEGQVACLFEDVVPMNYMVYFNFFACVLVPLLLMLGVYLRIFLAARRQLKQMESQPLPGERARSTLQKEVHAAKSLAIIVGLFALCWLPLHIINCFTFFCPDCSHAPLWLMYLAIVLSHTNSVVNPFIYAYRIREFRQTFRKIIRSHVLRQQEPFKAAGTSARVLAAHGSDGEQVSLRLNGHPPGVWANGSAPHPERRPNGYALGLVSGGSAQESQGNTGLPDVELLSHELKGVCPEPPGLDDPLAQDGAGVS

Row | Structure (SMILES) | IC50
1 | C[C@@](C(=O)NCC1(O)COC1)(c1ccccc1)n1ncc2c1nc(N)n1nc(-c3ccco3)nc21 [Example 31A] | 28 nM
2 | CNC(=O)C(c1ccccc1)n1ncc2c1nc(N)n1nc(-c3ccco3)nc21 (stereo not shown) [Example 4, 2-(5-amino-2-(furan-2-yl)-7H-pyrazolo[4,3-e][1,2,4]-triazolo[1,5-c]pyrimidin-7-yl)-N-methyl-2-phenylacetamide] | 3.8 nM
3 | CC(C(=O)NCc1cccnc1)(c1ccccc1)n1ncc2c1nc(N)n1nc(-c3ccco3)nc21 (stereo not shown) [Example 84, 2-(5-amino-2-(furan-2-yl)-7H-pyrazolo[4,3-e][1,2,4]triazolo[1,5-c]pyrimidin-7-yl)-2-phenyl-N-(pyridin-3-ylmethyl)propenamide] | 17 nM
4 | Nc1nc2c(cnn2C(C(=O)NC2CCOCC2)c2ccccc2)c2nc(-c3ccco3)nn12 (stereo not shown) [Example 11, 2-(5-amino-2-(furan-2-yl)-7H-pyrazolo[4,3-e][1,2,4]triazolo[1,5-c]pyrimidin-7-yl)-2-phenyl-N-(tetrahydro-2H-pyran-4-yl)acetamide] | 36 nM
5 | C[C@@H](O)CNC(=O)C(C)(c1ccccc1)n1ncc2c1nc(N)n1nc(-c3ccco3)nc21 (stereo partly drawn) [Example 38, 2-(5-amino-2-(furan-2-yl)-7H-pyrazolo[4,3-e][1,2,4]triazolo[1,5-c]pyrimidin-7-yl)-N—((R)-2-hydroxypropyl)-2-phenylpropanamide] | 22.6 nM
6 | COc1ccccc1C(C)(C(=O)N[C@H]1CC[C@@H](O)CC1)n1ncc2c1nc(N)n1nc(-c3ccco3)nc21 (relative stereo) [Example 139, 2-(5-amino-2-(furan-2-yl)-7H-pyrazolo[4,3-e][1,2,4]triazolo[1,5-c]pyrimidin-7-yl)-N-((cis)-4-hydroxycyclohexyl)-2-(2-methoxyphenyl)propanamide] | 1.9 nM
7 | CC(C(=O)NC[C@H]1CCOC1)(c1ccccc1)n1ncc2c1nc(N)n1nc(-c3ccco3)nc21 (stereo partly drawn) [Example 54, 2-(5-amino-2-(furan-2-yl)-7H-pyrazolo[4,3-e][1,2,4]triazolo[1,5-c]pyrimidin-7-yl)-2-phenyl-N—(((R)-tetrahydrofuran-3-yl)methyl)propanamide] | 8.1 nM
8 | CC(C(=O)NCC1CCCO1)(c1ccccc1)n1ncc2c1nc(N)n1nc(-c3ccco3)nc21 (stereo not shown) [Example 49, 2-(5-amino-2-(furan-2-yl)-7H-pyrazolo[4,3-e][1,2,4]triazolo[1,5-c]pyrimidin-7-yl)-2-phenyl-N-((tetrahydrofuran-2-yl)methyl)propanamide] | 3.7 nM
9 | CCCC(C(=O)NCc1ccccc1OC)n1ncc2c1nc(N)n1nc(-c3ccco3)nc21 (stereo not shown) [Example 21, 2-(5-amino-2-(furan-2-yl)-7H-pyrazolo[4,3-e][1,2,4]triazolo[1,5-c]pyrimidin-7-yl)-N-(2-methoxybenzyl)pentanamide] | 15.3 nM
10 | CC1(O)CCC(NC(=O)[C@@](C)(c2ccccc2)n2ncc3c2nc(N)n2nc(-c4ccco4)nc32)CC1 (stereo in doubt) [Example 33B, (R)-2-(5-amino-2-(furan-2-yl)-7H-pyrazolo[4,3-e][1,2,4]triazolo[1,5-c]pyrimidin-7-yl)-(trans)-N-(4-hydroxy-4-methylcyclohexyl)-2-phenylpropanamide] | 2.3 nM
11 | Cc1cccnc1CNC(=O)[C@@](C)(c1ccccc1)n1ncc2c1nc(N)n1nc(-c3ccco3)nc21 [Example 111B, (R)-2-(5-amino-2-(furan-2-yl)-7H-pyrazolo[4,3-e][1,2,4]triazolo[1,5-c]pyrimidin-7-yl)-N-((3-methylpyridin-2-yl)methyl)-2-phenylpropanamide] | 0.5 nM
12 | CC(C(=O)N[C@H]1COC[C@H]1O)(c1ccccc1)n1ncc2c1nc(N)n1nc(-c3ccco3)nc21 (stereo partly drawn) [Example 107, 2-(5-amino-2-(furan-2-yl)-7H-pyrazolo[4,3-e][1,2,4]triazolo[1,5-c]pyrimidin-7-yl)-N-((3S,4S)-4-hydroxytetrahydrofuran-3-yl)-2-phenylpropanamide] | 76.3 nM
13 | Cc1cccc(CNC(=O)C(c2ccccc2)n2ncc3c2nc(N)n2nc(-c4ccco4)nc32)c1 (stereo not shown) [Example 23, 2-(5-amino-2-(furan-2-yl)-7H-pyrazolo[4,3-e][1,2,4]triazolo[1,5-c]pyrimidin-7-yl)-N-(3-methylbenzyl)-2-phenylacetamide] | 1.9 nM
14 | CC(C(=O)NCC1(O)CCOCC1)(c1ccccc1)n1ncc2c1nc(N)n1nc(-c3ccco3)nc21 (stereo not shown) [Example 80, 2-(5-amino-2-(furan-2-yl)-7H-pyrazolo[4,3-e][1,2,4]triazolo[1,5-c]pyrimidin-7-yl)-N-((4-hydroxytetrahydro-2H-pyran-4-yl)methyl)-2-phenylpropanamide] | 9.4 nM
15 | C[C@](C(=O)NC1CCSCC1)(c1ccccc1)n1ncc2c1nc(N)n1nc(-c3ccco3)nc21 [Example 145B, (R)-2-(5-amino-2-(furan-2-yl)-7H-pyrazolo[4,3-e][1,2,4]triazolo[1,5-c]pyrimidin-7-yl)-2-phenyl-N-(tetrahydro-2H-thiopyran-4-yl)propanamide] | 9 nM
16 | CC1(O)CCC(NC(=O)[C@](C)(c2ccccc2)n2ncc3c2nc(N)n2nc(-c4ccco4)nc32)CC1 (stereo in doubt) [Example 69A, (S)-2-(5-amino-2-(furan-2-yl)-7H-pyrazolo[4,3-e][1,2,4]triazolo[1,5-c]pyrimidin-7-yl)-(cis)-N-(4-hydroxy-4-methylcyclohexyl)-2-phenylpropanamide] | 41.6 nM
17 | CC(C(=O)NCC1(O)COC1)(c1ccccc1)n1ncc2c1nc(N)n1nc(-c3nccs3)nc21 (stereo not shown) [Example 133, 2-(5-amino-2-(thiazol-2-yl)-7H-pyrazolo[4,3-e][1,2,4]triazolo[1,5-c]pyrimidin-7-yl)-N-((3-hydroxyoxetan-3-yl)methyl)-2-phenylpropanamide] | 15 nM
18 | CC(C(=O)N[C@H]1CCC[C@H]1O)(c1ccccc1)n1ncc2c1nc(N)n1nc(-c3ccco3)nc21 (stereo partly drawn) [Example 47, 2-(5-amino-2-(furan-2-yl)-7H-pyrazolo[4,3-e][1,2,4]triazolo[1,5-c]pyrimidin-7-yl)-N-((1S,2R)-2-hydroxycyclopentyl)-2-phenylpropanamide] | 12.8 nM
19 | CC(C(=O)Nc1ccncc1)(c1ccccc1)n1ncc2c1nc(N)n1nc(-c3ccco3)nc21 (stereo not shown) [Example 65, 2-(5-amino-2-(furan-2-yl)-7H-pyrazolo[4,3-e][1,2,4]triazolo[1,5-c]pyrimidin-7-yl)-2-phenyl-N-(pyridin-4-yl)propanamide] | 25.5 nM
20 | Nc1nc2c(cnn2C(C(=O)NCc2ccccc2F)c2ccccc2)c2nc(-c3ccco3)nn12 (stereo not shown) [Example 7, 2-(5-amino-2-(furan-2-yl)-7H-pyrazolo[4,3-e][1,2,4]triazolo[1,5-c]pyrimidin-7-yl)-N-(2-fluorobenzyl)-2-phenylacetamide] | 1.5 nM
21 | CC(C(=O)NC1CCCCC1)(c1ccccc1)n1ncc2c1nc(N)n1nc(-c3ccco3)nc21 (stereo not shown) [Example 43, 2-(5-amino-2-(furan-2-yl)-7H-pyrazolo[4,3-e][1,2,4]triazolo[1,5-c]pyrimidin-7-yl)-N-cyclohexyl-2-phenylpropanamide] | 4.1 nM
22 | CC(C(=O)NCc1ccc(F)cn1)(c1ccccc1)n1ncc2c1nc(N)n1nc(-c3ccco3)nc21 (stereo not shown) [Example 117, 2-(5-amino-2-(furan-2-yl)-7H-pyrazolo[4,3-e][1,2,4]triazolo[1,5-c]pyrimidin-7-yl)-N-((5-fluoropyridin-2-yl)methyl)-2-phenylpropanamide] | 3.4 nM
